Values after ≈ are worked out from the molar mass of the structure shown. Where two headings read alike, the source gives them in different places.
Experiments:
Format in all cases: cell-based
[1] = tested on: HIV-1 BaL (cell-free virus); test: Single-round infection assay, cell-free virus BaL; settings: for IC50: Human immunodeficiency virus 1, BAL, read-out: IC50 Cell-Free Virus BaL; for EC50 Cell-Free Virus BaL: Table 6
[2] = tested on: Cell-associated HIV-1, SupT1 (IIIB); test: Single-round infection assay, cell-associated virus SupT1 (IIIB); settings: for IC50: Human immunodeficiency virus 1, IIIB
[3] = tested on: HIV-1 IIIB (cell-free virus); test: microbe, parasite or virus in culture; settings: for IC50: Human immunodeficiency virus 1, IIIB, read-out: IC50 Cell-Free Virus IIIB; for EC50 Cell-free HIV-1 (IIIB) / EC50: Table 8; for EC50: read-out: EC50 Cell-free HIV-1 (IIIB); for EC50 Cell-Free Virus IIIB: Table 6
[4] = Table 1, 2 h incubation, wash, 48 h culture
[5] = SUP-T1, Table 1, 2 h incubation, wash, 48 h culture, read-out: IC50 Cell-Associated Virus SupT1 (IIIB)
[6] = 2 h incubation, wash, 48 h culture

Compound	IC50 Cell-Free Virus BaL [1, 4]	IC50 Cell-Associated Virus SupT1 (IIIB) [2, 4]	IC50 Cell-Free Virus IIIB [3, 4]	EC50 Cell-free HIV-1 (IIIB) [3, 6]	EC50 [3, 6]	other results
Cc1cn([C@H]2C=C[C@@H](CO)O2)c(=O)[nH]c1=O [2′,3′-didehydro-2′,3′-dideoxythymidine, reference compound]						IC50 [1]: 6.3 µg/mL (≈ 28.1 µM); IC50 ([2]; SUP-T1, read-out: IC50 Cell-Associated Virus SupT1 (IIIB)): 30.5 µg/mL (≈ 136 µM); IC50 [3]: 6 µg/mL (≈ 26.8 µM)
Nc1nc(=O)n([C@H]2CS[C@@H](CO)O2)cc1F [2′,3′-dideoxy-5-fluoro-3′-thiacytidine, reference compound]						IC50 [1, 4]: 0.18 µg/mL (≈ 0.728 µM); IC50 [2, 5]: 21.9 µg/mL (≈ 88.6 µM); IC50 [3, 4]: 0.48 µg/mL (≈ 1.94 µM)
CCSCCCCCCCCCCC(=O)OC[C@H]1O[C@@H](n2cc(C)c(=O)[nH]c2=O)C[C@@H]1N=[N+]=[N-] [3′-azido-2′,3′-dideoxy-5′-O-(11-thioethylundecanoyl)thymidine]	2.6 µg/mL (≈ 5.25 µM)	44.9 µg/mL (≈ 90.6 µM)	3.8 µg/mL (≈ 7.67 µM)			
Cc1cn([C@H]2C[C@H](N=[N+]=[N-])[C@@H](COC(=O)CCCCCCCCCCCBr)O2)c(=O)[nH]c1=O [3′-azido-2′,3′-dideoxy-5′-O-(12-bromododecanoyl)thymidine]	2.6 µg/mL (≈ 4.92 µM)	>100 µg/mL	5.6 µg/mL (≈ 10.6 µM)			
CCCCCCCCCCCCCCC(=O)OC[C@H]1O[C@@H](n2cc(C)c(=O)[nH]c2=O)C[C@@H]1N=[N+]=[N-] [3′-azido-2′,3′-dideoxy-5′-O-(pentadecanoyl)thymidine]	2.2 µg/mL (≈ 4.47 µM)	>100 µg/mL	8.8 µg/mL (≈ 17.9 µM)			
CCCCCCCCCCCCCC(=O)OC[C@H]1O[C@@H](n2cc(C)c(=O)[nH]c2=O)C[C@@H]1N=[N+]=[N-] [3′-azido-2′,3′-dideoxy-5′-O-(tetradecanoyl)thymidine]	2.4 µg/mL (≈ 5.03 µM)	>100 µg/mL	1.5 µg/mL (≈ 3.14 µM)			
CCCCCCCCCCCCCCOC[C@H]1O[C@@H](n2cc(C)c(=O)[nH]c2=O)C[C@@H]1N=[N+]=[N-] [3′-azido-2′,3′-dideoxy-5′-O-(tetradecyl)thymidine]	12.8 µg/mL (≈ 27.6 µM)	>100 µg/mL	57.8 µg/mL (≈ 125 µM)			
Cc1cn([C@H]2C[C@H](F)[C@@H](CO)O2)c(=O)[nH]c1=O [3′-fluoro-2′,3′-deoxythymidine (FLT), 3′-fluoro-2′,3′-deoxythymidine, reference compound]	0.1 µg/mL (≈ 0.409 µM)	>100 µg/mL	0.2 µg/mL (≈ 0.819 µM)	0.2 µg/mL (≈ 0.819 µM)	0.8 µM	
CCCCCCCCCCCCC(OC)C(=O)OC[C@H]1O[C@@H](n2cc(C)c(=O)[nH]c2=O)C[C@@H]1F (stereo partly shown) [3′-fluoro-2′,3′-dideoxy-5′-O-(2-methoxytetradecanoyl)thymidine]	0.1 µg/mL (≈ 0.206 µM)	>100 µg/mL	0.5 µg/mL (≈ 1.03 µM)			
CCCCCSCCCCCCCC(=O)OC[C@H]1O[C@@H](n2cc(C)c(=O)[nH]c2=O)C[C@@H]1F [3′-fluoro-2′,3′-dideoxy-5′-O-(9-thiatertradecanoyl)thymidine]	2.1 µg/mL (≈ 4.44 µM)	>100 µg/mL	5.4 µg/mL (≈ 11.4 µM)			
Cc1cn([C@H]2C[C@H](F)[C@@H](COC(=O)CCCCCCCCCCCN)O2)c(=O)[nH]c1=O [3′-fluoro-2′,3′-dideoxy-5′-O-(12-aminododecanoyl)thymidine]			0.67 µg/mL (≈ 1.52 µM)			
Cc1cn([C@H]2C[C@H](F)[C@@H](COC(=O)CCCCCCCCCCCBr)O2)c(=O)[nH]c1=O [3′-fluoro-2′,3′-dideoxy-5′-O-(12-bromododecanoyl)thymidine]	<0.1 µg/mL	>100 µg/mL	0.9 µg/mL (≈ 1.78 µM)			
CCCCCCCCCCCCCCOC[C@H]1O[C@@H](n2cc(C)c(=O)[nH]c2=O)C[C@@H]1F [3′-fluoro-2′,3′-dideoxy-5′-O-(tetradecyl)thymidine]	77.3 µg/mL (≈ 175 µM)	>100 µg/mL	79.1 µg/mL (≈ 180 µM)			
Cc1cn([C@H]2C=C[C@@H](COC(=O)CCCCCCCCCCCN=[N+]=[N-])O2)c(=O)[nH]c1=O [5′-O-(12-azidodecanoyl)-2′,3′-didehydro-2′,3′-dideoxythymidine]	1.4 µg/mL (≈ 3.13 µM)	10.0 µg/mL (≈ 22.3 µM)	3.0 µg/mL (≈ 6.7 µM)			
[N-]=[N+]=NCCCCCCCCCCCC(=O)OC[C@H]1O[C@@H](n2ccc(N)nc2=O)CS1 [5′-O-(12-azidododecanoyl)-2′,3′-dideoxy-3′-thiacytidine]						IC50 [1, 4]: 0.08 µg/mL (≈ 0.177 µM); IC50 [2, 5]: > 100 µg/mL; IC50 [3, 4]: 0.88 µg/mL (≈ 1.94 µM)
[N-]=[N+]=NCCCCCCCCCCCC(=O)OC[C@H]1O[C@@H](n2cc(F)c(N)nc2=O)CS1 [5′-O-(12-azidododecanoyl)-2′,3′-dideoxy-5-fluoro-3′-thiacytidine]						IC50 [1, 4]: 0.11 µg/mL (≈ 0.234 µM); IC50 [2, 5]: 4.3 µg/mL (≈ 9.14 µM); IC50 [3, 4]: 0.39 µg/mL (≈ 0.829 µM)
Cc1cn(C2C=CC(COC(=O)CCCCCCCCCCCSCCN=[N+]=[N-])O2)c(=O)[nH]c1=O (stereo not shown) [5′-O-(12-thioethylazidodecanoyl)-2′,3′-didehydro-2′,3′-dideoxythymidine]	2.7 µg/mL (≈ 5.32 µM)	21.7 µg/mL (≈ 42.7 µM)	6.7 µg/mL (≈ 13.2 µM)			
CCSCCCCCCCCCCCC(=O)OC[C@H]1O[C@@H](n2ccc(N)nc2=O)CS1 [5′-O-(13-thiapentadecanoyl)-2′,3′-dideoxy-3′-thiacytidine]						IC50 [1, 4]: < 0.1 µg/mL; IC50 [2, 5]: > 100 µg/mL; IC50 [3, 4]: 1.1 µg/mL (≈ 2.33 µM)
CCSCCCCCCCCCCCC(=O)OC[C@H]1O[C@@H](n2cc(F)c(N)nc2=O)CS1 [5′-O-(13-thiapentadecanoyl)-2′,3′-dideoxy-5-fluoro-3′-thiacytidine]						IC50 [1, 4]: 0.02 µg/mL (≈ 0.0408 µM); IC50 [2, 5]: 2.4 µg/mL (≈ 4.9 µM); IC50 [3, 4]: 0.024 µg/mL (≈ 0.049 µM)
CCCCCCCCCCCCCC(=O)OC[C@@H]1C=C[C@H](n2cc(C)c(=O)[nH]c2=O)O1 [5′-O-myristoyl-2′,3′-didehydro-2′,3′-dideoxythymidine]	5.4 µg/mL (≈ 12.4 µM)	>100 µg/mL	34 µg/mL (≈ 78.2 µM)			
CCCCCCCCCCCCCC(=O)OC[C@H]1O[C@@H](n2ccc(N)nc2=O)CS1 [5′-O-tetradecanoyl-2′,3′-dideoxy-3′-thiacytidine]						IC50 [1, 4]: 0.082 µg/mL (≈ 0.187 µM); IC50 [2, 5]: 27.3 µg/mL (≈ 62.1 µM); IC50 [3, 4]: 0.3 µg/mL (≈ 0.682 µM)
CCCCCCCCCCCCCC(=O)OC[C@H]1O[C@@H](n2cc(F)c(N)nc2=O)CS1 [5′-O-tetradecanoyl-2′,3′-dideoxy-5-fluoro-3′-thiacytidine]						IC50 [1, 4]: 0.033 µg/mL (≈ 0.0721 µM); IC50 [2, 5]: 1.7 µg/mL (≈ 3.71 µM); IC50 [3, 4]: 0.056 µg/mL (≈ 0.122 µM)
Cc1cn([C@H]2C[C@H](F)[C@@H](COC(=O)CCC(=O)OC[C@H]3O[C@@H](n4cc(C)c(=O)[nH]c4=O)C[C@@H]3F)O2)c(=O)[nH]c1=O [KPH-912, FLT-succinate-FLT]				2.1 µg/mL (≈ 3.68 µM)	3.7 µM	
Cc1cn([C@H]2C[C@H](N=[N+]=[N-])[C@@H](COC(=O)CCC(=O)OC[C@H]3O[C@@H](n4cc(C)c(=O)[nH]c4=O)C[C@@H]3N=[N+]=[N-])O2)c(=O)[nH]c1=O [KPH-913, AZT-succinate-AZT]				8.6 µg/mL (≈ 13.9 µM)	13.9 µM	
Cc1cn([C@H]2C[C@H](N=[N+]=[N-])[C@@H](COC(=O)CCC(NC(=O)CCC(=O)OC[C@H]3O[C@@H](n4cc(C)c(=O)[nH]c4=O)C[C@@H]3F)C(=O)OC[C@@H]3O[C@H](n4ccc(N)nc4=O)CS3)O2)c(=O)[nH]c1=O (stereo partly shown) [KPH-914, FLT-Succinate-AZT(glutamyl)-3TC]				0.9 µg/mL (≈ 0.964 µM)	0.96 µM	
Suramin-3′-azido-2′,3′-dideoxythymidine [Suramin-AZT]						EC50 Cell-Free Virus BaL [1]: 7.3 µg/mL; EC50 Cell-Free Virus IIIB [3]: 19.4 µg/mL
Suramin-3′-fluoro-2′,3′-dideoxythymidine [Suramin-FLT]						EC50 Cell-Free Virus BaL [1]: 6.2 µg/mL; EC50 Cell-Free Virus IIIB [3]: 23.6 µg/mL

More lines, main results first:

IC50 Cell-Free Virus BaL [1, 4]	IC50 Cell-Associated Virus SupT1 (IIIB) [2, 4]	IC50 Cell-Free Virus IIIB [3, 4]	EC50 Cell-free HIV-1 (IIIB) [3, 6]	EC50 [3, 6]	Compound	other results
			10.7 µg/mL (≈ 17.1 µM)	17.1 µM	CC(=O)NC(CCC(=O)OC[C@H]1O[C@@H](n2cc(C)c(=O)[nH]c2=O)C[C@@H]1F)C(=O)OC[C@@H]1O[C@H](n2ccc(N)nc2=O)CS1 (stereo partly shown) [KPH-96, FLT(Glutamyl)-3TC]	
			1.6 µg/mL (≈ 2.01 µM)	2 µM	CCCCCCCCCCCCCC(=O)NC(CCC(=O)OC[C@H]1O[C@@H](n2cc(C)c(=O)[nH]c2=O)C[C@@H]1F)C(=O)OC[C@@H]1O[C@H](n2ccc(N)nc2=O)CS1 (stereo partly shown) [KPH-97]	
			9.0 µg/mL (≈ 13.5 µM)	13.5 µM	CC(=O)NC(CCC(=O)OC[C@H]1O[C@@H](n2cc(C)c(=O)[nH]c2=O)C[C@@H]1F)C(=O)OC[C@H]1O[C@@H](n2cc(C)c(=O)[nH]c2=O)C[C@@H]1N=[N+]=[N-] (stereo partly shown) [KPH-98, FLT(Glutamyl)-AZT]	
			2.0 µg/mL (≈ 2.4 µM)	2.4 µM	CCCCCCCCCCCCCC(=O)NC(CCC(=O)OC[C@H]1O[C@@H](n2cc(C)c(=O)[nH]c2=O)C[C@@H]1F)C(=O)OC[C@H]1O[C@@H](n2cc(C)c(=O)[nH]c2=O)C[C@@H]1N=[N+]=[N-] (stereo partly shown) [KPH-99]	
			4.9 µg/mL (≈ 5.99 µM)	6 µM	CCCCCCCCCCCCCC(=O)NC(CCC(=O)OC[C@H]1O[C@@H](n2cc(C)c(=O)[nH]c2=O)C[C@@H]1N=[N+]=[N-])C(=O)OC[C@@H]1O[C@H](n2ccc(N)nc2=O)CS1 (stereo partly shown) [KPH-910]	
			7.8 µg/mL (≈ 12 µM)	12 µM	CC(=O)NC(CCC(=O)OC[C@H]1O[C@@H](n2cc(C)c(=O)[nH]c2=O)C[C@@H]1N=[N+]=[N-])C(=O)OC[C@@H]1O[C@H](n2ccc(N)nc2=O)CS1 (stereo partly shown) [KPH-911, AZT(Glutamyl)-3TC]	

From US9296776B2, “Substituted nucleoside derivatives with antiviral and antimicrobial properties” (Eastern Virginia Medical School, priority 2007, dated 2016)
